Experiment [1] concerns Aonidiella aurantii males. As to conditions: within natural semiochemical matrix; Vacas et al. 2017; cited from earlier work.
For experiment [2], the system named is Aonidiella aurantii. Description: Field control of A. aurantii in citrus crops, percentage of damaged fruit. It counts as in vivo. Conditions: 15.00 μg/diffuser/day. On the procedure: With the final effective flow value (15 μg/diffuser/day), the assays for ascertaining the effective flow rate resulting from the combinations of the final effective flow of 15 μg/diffuser/day with an effective number of devices of 500 diffusers/ha, 380 diffusers/ha, 250 diffusers/ha, 100 diffusers/ha and 50 diffusers/ha continued in 2017, in addition to the result of chemical controls carried out using the products currently authorized to combat this pest. The effectiveness of the treatments was evaluated in accordance with the percentage of damaged fruit by means of sampling prior to picking the fruit. In order to determine said percentage, the number of shields of A. aurantii females per fruit was counted using the following protocol: 20 trees were selected per hectare and 10 fruits were taken from each tree: 8 from the exterior (from all the orientations and randomly) and 2 from the interior (randomly). A fruit with more than 10 shields was considered damaged. In the case of the treatment based on chemical control, a surface area equivalent to the other treatments was evaluated.

Experiment [3] has as its system Aonidiella aurantii males. Description: Field trap test: effective flow attracting A. aurantii males within the interlinked semiochemical matrix. The format is in vivo. Conditions: for EFFECTIVE FLOW: orange. The procedure: Experiments for obtaining an effective flow to combat the diaspidid Aonidiella aurantii were carried out on citrus crops located in the province of Huelva in 2015 and 2016.
For these assays, four plots of different varieties of citrus trees with surface areas comprised between 2 and 10 hectares were initially taken.
An artificial semiochemical matrix 1 was generated therein by arranging 500 diffusers/ha, with a substantially constant initial emission flow-1 of 300 μg/diffuser/day (optimal flow according to the state of the art) of (3S,6RS)-3-methyl-6-isopropenyl-9-decen-1-yl acetate.
In the interior of these artificial semiochemical matrices, two blocks of seven diffusers with different emission flows were installed in each assay. These blocks were separated by a distance of more than 80 meters therebetween and the diffusers were separated 25 meters intra-block. Each block included: • (a) a glued trap, without any kind of semiochemical emission; • (b) a glued trap, with a diffuser with a substantially constant emission flow of 25 μg/day of (3S,6RS)-3-methyl-6-isopropenyl-9-decen-1-yl acetate. • (c) a glued trap, with a diffuser with a substantially constant emission flow of 50 μg/day of (3S,6RS)-3-methyl-6-isopropenyl-9-decen-1-yl acetate. • (d) a glued trap, with a diffuser with a substantially constant emission flow of 100 μg/day of (3S,6RS)-3-methyl-6-isopropenyl-9-decen-1-yl acetate. • (e) a glued trap with a diffuser with a substantially constant emission flow of 200 μg/day of (3S,6RS)-3-methyl-6-isopropenyl-9-decen-1-yl acetate. • (f) a glued trap with a diffuser with a substantially constant emission flow of 300 μg/day of (3S,6RS)-3-methyl-6-isopropenyl-9-decen-1-yl acetate (initial flow-1). • (g) a glued trap with a diffuser with a substantially constant emission flow of 400 μg/day of (3S,6RS)-3-methyl-6-isopropenyl-9-decen-1-yl acetate.
All the traps were placed in the trees at a height of 1.5 m. The traps used were of the 9.5×15 cm white sticky sheet type. Diffusers with a substantially constant emission flow were fixed to the center of the sticky sheet. Replacement of the sheets, intra-block rotation of the traps and reading of the male captures was performed on a weekly basis. Upon completing the first rotation of the traps, it was observed that those whose emission corresponded to the flow of […] had the highest number of captured males and not the traps with an initial flow-1 of 300 μg/diffuser/day (FIG. 1).
Subsequently, a new iteration for obtaining the effective flow-2 within the new interlinked matrix was initiated, to which end the previous diffusers were withdrawn and a new artificial semiochemical matrix-2 was generated through the installation of 500 diffusers/ha, with a substantially constant initial emission flow-2 equal to 25 μg/day (effective flow-1) of (3S,6RS)-3-methyl-6-isopropenyl-9-decen-1-yl acetate.
Two blocks of seven diffusers were installed in the interior of this new interlinked semiochemical matrix in each assay. These blocks were separated by a distance of more than 80 meters therebetween and the diffusers were separated 25 meters intra-block. […]

The test system of experiment [4] is Aonidiella aurantii. Description: Field control of A. aurantii in citrus crops, percentage of damaged fruit. Conditions: for EFFECTIVE CONTROL [% DAMAGE]: orange. It counts as in vivo.
The subject of another experiment is Planococcus ficus males. In words: Field trap test: effective flow attracting P. ficus males within the interlinked semiochemical matrix. The format is in vivo. As to conditions: for EFFECTIVE FLOW: table grapes. The procedure: The response of the males of the species P. ficus, at different emission flows of senecioate S-lavandulyl, was evaluated in various field tests carried out on table grape crops located in the Municipal District of […] de Murcia and Totana, both municipalities in the Region of Murcia in 2015, 2016 and 2017. For these assays, four plots of different varieties of table grapes with surface areas comprised between 1 and 4 hectares were initially taken. An artificial semiochemical matrix-1 was generated therein through the installation of 1,000 diffusers/ha, with a substantially constant emission flow of 300 μg/day of S-lavandulyl senecioate (initial flow-1). The choice of this initial emission flow is based on the average emission of commercial diffusers for controlling this pest. In the interior of these artificial semiochemical matrices, two blocks of six diffusers with different emission flows were installed in each assay. These blocks were separated by a distance of more than 80 meters therebetween and the diffusers were separated 25 meters intra-block. Each block included: • (a) a glued trap, without any kind of semiochemical emission. • (b) a glued trap, with a substantially constant emission flow of 10 μg/day of S-lavandulyl senecioate. • (c) a glued trap, with a diffuser with a substantially constant emission flow of 50 μg/day of S-lavandulyl senecioate. • (d) a glued trap, with a diffuser with a substantially constant emission flow of 100 μg/day of S-lavandulyl senecioate. • (e) a glued trap with a diffuser with a substantially constant emission flow of 200 μg/day of S-lavandulyl senecioate. • (f) a glued trap with a diffuser with a substantially constant emission flow of 300 μg/day of S-lavandulyl senecioate (initial flow-1). All the traps were placed in the trees at a height of 2 m. The traps used were of the 9.5×15 cm white sticky sheet type. Diffusers with a substantially constant emission flow were fixed to the center of the sticky sheet. Replacement of the sheets, intra-block rotation of the traps and reading of the male captures was performed on a weekly basis. Upon completing the first rotation of the traps it was observed that those whose emission corresponded to the emission flow of […] (effective flow-1) achieved the highest number of captures within the interlinked semiochemical matrix (FIG. 4). Next, a new iteration for obtaining the effective flow-2 within the new interlinked matrix was initiated, to which end the previous diffusers were withdrawn and a new artificial semiochemical matrix-2 was generated through the installation of 1,000 diffusers/ha, with a substantially constant emission flow of 10 μg/day (effective flow-1) of S-lavandulyl senecioate. Two blocks of six diffusers were installed in the interior of this new interlinked semiochemical matrix in each assay. These blocks were separated by a distance of more than 80 meters therebetween and the diffusers were separated 25 meters intra-block. Each block included: • (a) a glued trap, without any kind of semiochemical emission; • (b) a glued trap, with a diffuser with a substantially constant emission flow of 0.1 μg/day of S-lavandulyl senecioate. • (c) a glued trap, with a diffuser with a substantially constant emission flow of 5 μg/day of S-lavandulyl senecioate. • (d) a glued trap, with a diffuser with a substantially constant emission flow of 10 μg/day of S-lavandulyl senecioate. • (e) a glued trap with a diffuser with a substantially constant emission flow of 15 μg/day of S-lavandulyl senecioate. • (f) a glued trap with a diffuser with a substantially constant emission flow of 25 μg/day of S-lavandulyl senecioate. • (g) a glued trap with a diffuser with a substantially constant emission flow of 50 μg/day of S-lavandulyl senecioate. All the traps were placed in the trees at a height of 2 m. The traps used were of the 9.5×15 cm white sticky sheet type. The diffusers with a substantially constant emission flow were fixed to the center of the sticky sheet. […]

The next experiment deals with Planococcus ficus. In words: Field control of P. ficus in table grape crops, percentage of bunches with presence of pest, molasses or fumigines. It counts as in vivo. Conditions: table grapes. On the procedure: With the final definitive effective flow value (5-10 μg/diffuser/day), the assays for ascertaining the effective flow rate resulting from the combinations of the final effective flow with an effective number of devices of 1,000 diffusers/ha, 500 diffusers/ha, 250 diffusers/ha and 100 diffusers/ha continued in 2016 and 2017. Since the plots where the assays were carried out were used for organic or environmentally friendly farming, it was not possible to establish a chemical control for comparing the results of the effective control of Planococcus ficus. The effectiveness of the treatments was assessed in accordance with the percentage of bunches with presence of Planococcus ficus, molasses or fumigines by sampling prior to picking the grapes. In order to determine said percentage, 20 vines per hectare were taken randomly and 20 bunches were inspected in each, of which the 10 bunches closest to the center of the vine and the 10 bunches farthest from the vine were chosen, covering the entire vine. Both bunches in contact with primary branches were taken and isolated without touching any other branch. A total of […].

Values joined by “and” are separate entries in the source; they are usually repeats but may differ in a detail not shown here. Equal entries are not always repeated.

For the molecule `C=CCCC(CC[C@H](C)CCOC(C)=O)C(=C)C` (mixture of isomers) [(3S,6RS)-3-methyl-6-isopropenyl-9-decen-1-yl acetate], in experiment [1], the “optimal flow according to the state of the art” value is recorded as 300 μg/diffuser/day. For the same molecule, the “EFFECTIVE CONTROL [% DAMAGE]” value was 3.30% and 4.00% in the experiment with Aonidiella aurantii [2] (50 diff/Ha, 0.75 mg/Ha/day, 2017 Serra-Valencia, orange); 5.10% and 3.80% with Aonidiella aurantii [2] (100 diff/Ha, 1.50 mg/Ha/day, 2017 Serra-Valencia, orange); 4.20% with Aonidiella aurantii [2] (250 diff/Ha, 3.75 mg/Ha/day, 2017 Monserrat-Valencia, mandarine); 3.00% with Aonidiella aurantii [2] (250 diff/Ha, 3.75 mg/Ha/day, 2017 Monserrat-Valencia, orange); 1.90% in the experiment on Aonidiella aurantii [2] (250 diff/Ha, 3.75 mg/Ha/day, 2017 Picasent-Valencia, mandarine); 1.70% and 0.70% and 0.60% in the experiment on Aonidiella aurantii [4] (15.00 μg/diffuser/day, 380 diff/Ha, 5.70 mg/Ha/day, 2016 El Campillo-Huelva). The “EFFECTIVE CONTROL [% DAMAGE]” value with Aonidiella aurantii [4] (matrix 25.00 μg/diffuser/day, 500 diff/Ha, 12.50 mg/Ha/day, 2016 Nerva Huelva) is 7.30% and 7.50% and 8.00%. Also, the “EFFECTIVE FLOW” value in experiment [3] (1st iteration, artificial semiochemical matrix 300.00 μg/diffuser/day, 500 diff/Ha, 2015 Rio Tinto-Huelva) was found to be 25.00 μg/diffuser/day; in experiment [3] (2nd iteration, artificial semiochemical matrix 25.00 μg/diffuser/day, 500 diff/Ha, 2016 Nerva Huelva) it was 15.00 μg/diffuser/day; in experiment [3] (3rd iteration, artificial semiochemical matrix 15.00 μg/diffuser/day, 380 diff/Ha, 2016 El Campillo-Huelva), 15.00 μg/diffuser/day. The same molecule had an emission flow with the highest number of captured males (effective flow-1) in experiment [3] (first rotation, matrix-1 of 500 diffusers/ha at 300 μg/diffuser/day, FIG. 1) of 25 µg/diffuser/day. Further, in experiment [3] (matrix-2 of 500 diffusers/ha at 25 μg/day, FIG. 2), the emission flow with higher number of captures (effective flow-2) amounted to 15 µg/day. In experiment [3] (third iteration, matrix of 500 diffusers/ha at 15 μg/day, FIG. 3), the final effective flow was 15 μg/diffuser/day. Also, in the experiment on Aonidiella aurantii [4] (5 μg/day at 500 emission points per hectare), the “effective flow rate value determined within the interlinked semiochemical matrix after successive iterations” value was 2.5 mg per hectare and day. In addition, in the experiment with Aonidiella aurantii [4] (300 μg/day at 500 emission points per hectare), the “flow rate corresponding to the optimal flow according to the state of the art” value is 150 mg per hectare and day.

Consider `C=C(C)[C@H](CC=C(C)C)COC(=O)C=C(C)C` [S-lavandulyl senecioate], for which the “EFFECTIVE FLOW” value was found to be 10.00 μg/diffuser/day with Planococcus ficus males (1st iteration, artificial semiochemical matrix 300.00 μg/diffuser/day, 1,000 diff/Ha, 2015 Alhama de Murcia); 10.00 μg/diffuser/day with Planococcus ficus males (2nd iteration, artificial semiochemical matrix 10.00 μg/diffuser/day, 1,000 diff/Ha, 2016 Alhama de Murcia); 5.00 μg/diffuser/day in the experiment on Planococcus ficus males (3rd iteration, artificial semiochemical matrix 5.00 μg/diffuser/day, 1,000 diff/Ha, 2017 Alhama de Murcia); 10.00 μg/diffuser/day in the experiment with Planococcus ficus males (3rd iteration, artificial semiochemical matrix 10.00 μg/diffuser/day, 500 diff/Ha, 2016 Alhama de Murcia). In the experiment with Planococcus ficus males (after second iteration), the “final definitive effective flow value” is recorded as 5-10 μg/diffuser/day. The emission flow with the highest number of captures (effective flow-1) in the experiment on Planococcus ficus males (matrix-1 of 1,000 diffusers/ha at 300 μg/day, FIG. 4) was determined as 10 µg/day. Besides, the “flows with the highest number of male captures” value with Planococcus ficus males (matrix-2 of 1,000 diffusers/ha at 10 μg/day, FIG. 5) was 5 µg/day and 10 µg/day. In addition, the “EFFECTIVE CONTROL [% DAMAGE]” value was 4.50% with Planococcus ficus (5 μg/diffuser/day, 100 diff/Ha, 0.50 mg/Ha/day, 2017 Totana-Murcia); 1.80% with Planococcus ficus (5 μg/diffuser/day, 250 diff/Ha, 1.25 mg/Ha/day, 2017 Totana-Murcia); 0.80% and 1.40% in the experiment with Planococcus ficus (5.00 μg/diffuser/day, 500 diff/Ha, 2.50 mg/Ha/day, 2017 Alhama de Murcia); 2.30% and 0.00% in the experiment on Planococcus ficus (5.00 μg/diffuser/day, 1,000 diff/Ha, 5.00 mg/Ha/day, 2017 Alhama de Murcia); 3.00% in the experiment with Planococcus ficus (10 μg/diffuser/day, 100 diff/Ha, 1.00 mg/Ha/day, 2017 Totana-Murcia); 2.90% in the experiment with Planococcus ficus (10 μg/diffuser/day, 250 diff/Ha, 2.50 mg/Ha/day, 2017 Totana-Murcia). The “EFFECTIVE CONTROL [% DAMAGE]” value in the experiment with Planococcus ficus (10.00 μg/diffuser/day, 500 diff/Ha, 5.00 mg/Ha/day, 2016 Alhama de Murcia) was 0%; with Planococcus ficus (10.00 μg/diffuser/day, 1,000 diff/Ha, 10.00 mg/Ha/day, 2016 Alhama de Murcia), 1.20% and 0.90% and 3.70%.

The values above are taken from patent publication US20210059246A1, “METHOD FOR EFFECTIVELY CONTROLLING COCCOID INSECT PESTS” (Ecología y Protección Agrícola, S.L., priority 2017, published 2021).
